In paper PMC7031696 (Cell chemical biology, 2019):
Read-outs that look alike come from different tables or passages of the source.

What was measured:
[1] = tested on: Plasmodium falciparum 3D7-A10 parasites; assay: Stage specificity assay (8-h exposure of synchronized stages, IC50^8h); format: cell-based; conditions: for IC50: Plasmodium falciparum
[2] = tested on: asynchronous 3D7-A10 parasite cultures; assay: Standard 72-h exposure asexual blood stage susceptibility assay (IC50^72h); format: cell-based, Plasmodium falciparum; conditions: Plasmodium falciparum, 3D7, 72 h, read-out: Overall (72hr assay) Mean IC50 (IC50^72h)
[3] = tested on: 3D7-MR4 trophozoite parasite-infected RBCs; assay: Metabolomic profiling (hydrophilic metabolite changes, UHPLC-MS); format: cell-based, Plasmodium falciparum
[4] = tested on: 3D7-A10 or Dd2-B2 parasites; assay: Resistance selections (single step, pulsing or ramping); format: cell-based, Plasmodium falciparum
[5] = 10 × IC50^72h, 2.5 hr, trophozoites

## CCCOCc1cc(CN2CCN(c3cccc(Cl)c3)CC2)c(O)c2ncccc12 [MMV000787]
[1]; 3D7-A10
  Ratio lowest IC50 8hr/IC50 72hr: 0.7
[1]; 8-h exposures, survival curves
  killing in stage specificity assay: incomplete killing
[1]; 3D7, 8 h, read-out: IC50^8h values at all tested stages, 8-h exposures, all asexual blood stages
  IC50: > 1 µM
[1]; 3D7, read-out: Early rings Mean IC50 (IC50^8h), 8-h exposure 0–8 hr, 3D7-A10, survival at 60 h
  IC50: 5.74 µM
[1]; 3D7, read-out: Early trophozoites Mean IC50 (IC50^8h), 8-h exposure 16–24 hr, 3D7-A10, survival at 60 h
  IC50: 3.31 µM
[1]; 3D7, read-out: Late rings Mean IC50 (IC50^8h), 8-h exposure 8–16 hr, 3D7-A10, survival at 60 h
  IC50: 7.87 µM
[1]; 3D7, read-out: Late trophozoites Mean IC50 (IC50^8h), 8-h exposure 24–32 hr, 3D7-A10, survival at 60 h
  IC50: 1.35 µM
[1]; 3D7, read-out: Schizonts Mean IC50 (IC50^8h), 8-h exposure 32–40 hr, 3D7-A10, survival at 60 h
  IC50: 5.91 µM
[1]; period when the parasite was most susceptible (lowest IC50^8h)
  Stage of peak activity (Figure 6): late trophozoites
[1]; stage(s) with the lowest IC50^8h
  Peak Activity (Table S1): Late Trophs
[2]
  IC50: 1960 nM
[3]; [5]
  metabolic signature: increases in the pyrimidine precursors dihydroorotate and N-carbamoyl-L-aspartate (mETC disruption): observed
  orotidine 5-P levels: decreased
[3]; metabolite 3-phosphoglycerate, log2 fold change
  Log2(fold changes) 3-phosphoglycerate: -0.5371
[3]; metabolite 4-Pyridoxic acid, log2 fold change
  Log2(fold changes) 4-Pyridoxic acid: -0.4654
[3]; metabolite 4-aminobutyrate, log2 fold change
  Log2(fold changes) 4-aminobutyrate: 0.0414
[3]; metabolite 4-phosphopantetheine, log2 fold change
  Log2(fold changes) 4-phosphopantetheine: 0.0000
[3]; metabolite 4-phosphopantothenate, log2 fold change
  Log2(fold changes) 4-phosphopantothenate: -0.5845
[3]; metabolite 5-aminopentanoic acid, log2 fold change
  Log2(fold changes) 5-aminopentanoic acid: 0.0000
[3]; metabolite 5-methyl-THF, log2 fold change
  Log2(fold changes) 5-methyl-THF: 0.0000
[3]; metabolite 5-phosphoribosyl-1-pyrophosphate, log2 fold change
  Log2(fold changes) 5-phosphoribosyl-1-pyrophosphate: 0.0000
[3]; metabolite 6-phospho-D-gluconate, log2 fold change
  Log2(fold changes) 6-phospho-D-gluconate: -0.3590
[3]; metabolite HVDD
  Log2(fold change) HVDD: -0.3092
[3]; metabolite Hydroxyisocaproic acid
  Log2(fold change) Hydroxyisocaproic acid: 0.0000
[3]; metabolite IDP
  Log2(fold change) IDP: 0.0000
[3]; metabolite IMP
  Log2(fold change) IMP: -0.1140
[3]; metabolite Inositol
  Log2(fold change) Inositol: 0.0000
[3]; metabolite Isopentyl-PP
  Log2(fold change) Isopentyl-PP: -1.2940
[3]; metabolite L-arginino-succinate
  Log2(fold change) L-arginino-succinate: 0.4157
[3]; metabolite LD
  Log2(fold change) LD: 0.2463
[3]; metabolite Myristoyl/tetradecanoyl-CoA
  Log2(fold change) Myristoyl/tetradecanoyl-CoA: 0.0000
[3]; metabolite N-Acetyl-L-alanine
  Log2(fold change) N-Acetyl-L-alanine: -0.3215
[3]; metabolite N-acetyl-L-ornithine
  Log2(fold change) N-acetyl-L-ornithine: -0.0825
[3]; metabolite N-acetyl-glucosamine-1/6-phosphate
  Log2(fold change) N-acetyl-glucosamine-1/6-phosphate: -0.1305
[3]; metabolite N-acetyl-glutamate
  Log2(fold change) N-acetyl-glutamate: -0.2597
[3]; metabolite N-acetyl-glutamine
  Log2(fold change) N-acetyl-glutamine: -0.3137
[3]; metabolite N-carbamoyl-L-aspartate
  Log2(fold change) N-carbamoyl-L-aspartate: 1.8530
[3]; metabolite NAD+
  Log2(fold change) NAD+: -0.4850
[3]; metabolite NADH
  Log2(fold change) NADH: 0.6916
[3]; metabolite NADP+
  Log2(fold change) NADP+: -0.1054
[3]; metabolite NADPH
  Log2(fold change) NADPH: 0.8357
[3]; metabolite O-acetyl-L-serine
  Log2(fold change) O-acetyl-L-serine: 0.0023
[3]; metabolite Octoluse 8/1P
  Log2(fold change) Octoluse 8/1P: -0.4530
[3]; metabolite Octoluse Bisphosphate
  Log2(fold change) Octoluse Bisphosphate: -0.4981
[3]; metabolite PD
  Log2(fold change) PD: 0.8974
[3]; metabolite PE
  Log2(fold change) PE: 0.4326
[3]; metabolite PEE
  Log2(fold change) PEE: -0.3726
[3]; metabolite PEEK
  Log2(fold change) PEEK: 0.6684
[3]; metabolite PVNF
  Log2(fold change) PVNF: -0.7950
[3]; metabolite Pyroglutamic acid
  Log2(fold change) Pyroglutamic acid: -0.5088
[3]; metabolite Pyrophosphate
  Log2(fold change) Pyrophosphate: 0.0000
[3]; metabolite Ribose-5-phosphate
  Log2(fold change) Ribose-5-phosphate: -0.4878
[3]; metabolite S-adenosyl-L-homocysteine
  Log2(fold change) S-adenosyl-L-homocysteine: -0.1665
[3]; metabolite S-adenosyl-L-methioninamine
  Log2(fold change) S-adenosyl-L-methioninamine: 1.4172
[3]; metabolite S-adenosyl-L-methionine
  Log2(fold change) S-adenosyl-L-methionine: 0.0000
[3]; metabolite S-methyl-5'-thioadenosine
  Log2(fold change) S-methyl-5'-thioadenosine: 0.1323
[3]; metabolite SD
  Log2(fold change) SD: 0.5833
[3]; metabolite SDL
  Log2(fold change) SDL: 0.0000
[3]; metabolite SID
  Log2(fold change) SID: 0.2266
[3]; metabolite Sedoheptulose bisphosphate
  Log2(fold change) Sedoheptulose bisphosphate: -0.5430
[3]; metabolite Thiamine pyrophosphate
  Log2(fold change) Thiamine pyrophosphate: -0.2018
[3]; metabolite UDP-D-glucose, log2 fold change
  Log2(fold changes) UDP-D-glucose: -0.1946
[3]; metabolite UDP-D-glucuronate, log2 fold change
  Log2(fold changes) UDP-D-glucuronate: -0.2169
[3]; metabolite UDP-N-acetyl-glucosamine, log2 fold change
  Log2(fold changes) UDP-N-acetyl-glucosamine: -0.3874
[3]; metabolite UDP, log2 fold change
  Log2(fold changes) UDP: -0.9589
[3]; metabolite UMP, log2 fold change
  Log2(fold changes) UMP: -0.1735
[3]; metabolite UTP, log2 fold change
  Log2(fold changes) UTP: 0.0000
[3]; metabolite hydroxyphenylpyruvate
  Log2(fold change) hydroxyphenylpyruvate: 0.0000
[3]; metabolite hydroxyproline/Aminolevulinate
  Log2(fold change) hydroxyproline/Aminolevulinate: -0.3494
[3]; metabolite hypoxanthine
  Log2(fold change) hypoxanthine: -0.2301
[3]; metabolite indole
  Log2(fold change) indole: 0.0000
[3]; metabolite inosine
  Log2(fold change) inosine: -0.0358
[3]; metabolite isoleucine
  Log2(fold change) isoleucine: 0.0000
[3]; metabolite lactate
  Log2(fold change) lactate: -0.6338
[3]; metabolite leucine
  Log2(fold change) leucine: 0.0000
[3]; metabolite lysine
  Log2(fold change) lysine: -0.1255
[3]; metabolite malate
  Log2(fold change) malate: 0.0012
[3]; metabolite maleic acid
  Log2(fold change) maleic acid: 0.0284
[3]; metabolite methionine
  Log2(fold change) methionine: -0.0998
[3]; metabolite myo-inositol
  Log2(fold change) myo-inositol: -0.7776
[3]; metabolite nicotinamide mononucleotide
  Log2(fold change) nicotinamide mononucleotide: -0.2457
[3]; metabolite nicotinate
  Log2(fold change) nicotinate: -0.3114
[3]; metabolite ornithine
  Log2(fold change) ornithine: 0.0122
[3]; metabolite orotate
  Log2(fold change) orotate: 0.0632
[3]; metabolite orotidine-5'-phosphate
  Log2(fold change) orotidine-5'-phosphate: -0.3294
[3]; metabolite oxaloacetate
  Log2(fold change) oxaloacetate: -0.6486
[3]; metabolite p-aminobenzoate
  Log2(fold change) p-aminobenzoate: 0.0000
[3]; metabolite p-hydroxybenzoate
  Log2(fold change) p-hydroxybenzoate: 0.0000
[3]; metabolite pantothenate
  Log2(fold change) pantothenate: -0.1388
[3]; metabolite phenylalanine
  Log2(fold change) phenylalanine: -0.3732
[3]; metabolite phenylpyruvate
  Log2(fold change) phenylpyruvate: 0.0000
[3]; metabolite phosphoenolpyruvate
  Log2(fold change) phosphoenolpyruvate: -0.1822
[3]; metabolite prephenate
  Log2(fold change) prephenate: 0.5798
[3]; metabolite proline
  Log2(fold change) proline: -0.4229
[3]; metabolite pyridoxine
  Log2(fold change) pyridoxine: -0.3069
[3]; metabolite pyruvate
  Log2(fold change) pyruvate: -1.0960
[3]; metabolite riboflavin
  Log2(fold change) riboflavin: -0.1793
[3]; metabolite ribose
  Log2(fold change) ribose: -0.0760
[3]; metabolite ribose-phosphate
  Log2(fold change) ribose-phosphate: -0.9121
[3]; metabolite ribulose-5-phosphate
  Log2(fold change) ribulose-5-phosphate: -0.5577
[3]; metabolite serine
  Log2(fold change) serine: -0.1539
[3]; metabolite sn-glycerol-3-phosphate
  Log2(fold change) sn-glycerol-3-phosphate: 0.0054
[3]; metabolite succinate/Methylmalonic acid
  Log2(fold change) succinate/Methylmalonic acid: -0.5977
[3]; metabolite succinyl-CoA/methylmalonyl-CoA
  Log2(fold change) succinyl-CoA/methylmalonyl-CoA: 0.0000
[3]; metabolite taurine
  Log2(fold change) taurine: -0.2559
[3]; metabolite thiamine
  Log2(fold change) thiamine: -0.2060
[3]; metabolite threonine/homoserine
  Log2(fold change) threonine/homoserine: -0.2606
[3]; metabolite thymidine
  Log2(fold change) thymidine: 0.0000
[3]; metabolite thymine, log2 fold change
  Log2(fold changes) thymine: 0.0000
[3]; metabolite trehalose-6-Phosphate, log2 fold change
  Log2(fold changes) trehalose-6-Phosphate: 0.0000
[3]; metabolite tryptophan, log2 fold change
  Log2(fold changes) tryptophan: -0.8402
[3]; metabolite tyrosine, log2 fold change
  Log2(fold changes) tyrosine: -0.1716
[3]; metabolite uridine, log2 fold change
  Log2(fold changes) uridine: 0.0000
[4]; 5 × 10^8 to 1 × 10^9 3D7-A10 or Dd2-B2 parasites, 3–6 × IC50^72h
  outcome of resistance selections (continuous exposure or pulsing): did not result in MMV000787-resistant parasites
[4]; from failed selections in 3D7-A10 / Dd2-B2
  minimum inocula of resistance: above 5 × 10^8 parasites
